Assay results as given in patent US20210196598A1, “Specific Co-Aggregation Inhibition by Arginine” (priority 2018, published 2021).

Legend:
[1] = system: co-aggregates of S. gordonii (commensal) and F. nucleatum (pathogenic); experiment: FlowCam coaggregation, commensal:pathogenic pair S. gordonii and F. nucleatum; type: cell-based, Streptococcus gordonii and Fusobacterium nucleatum
Protocol: (§1) Coaggregation was studied using FlowCam® technology (Fluid Imaging Technologies, ME, USA). S. gordonii DL1, A. oris MG1, P. gingivalis W83, and F. nucleatum ATCC 25586 were harvested from batch cultures and washed once in coaggregation buffer by centrifuging for 10 mins at 3,000 g. After centrifugation, the pellets were re-suspended in coaggregation buffer and adjusted to an optical density of 1.0 (±0.1) at 600 nm. The cell suspensions were then subject to a 5-fold dilution in coaggregation buffer. Each pair was then loaded onto the FlowCam™ device and allowed to sit for one minute. The pairs were subsequently pumped through the device until they reached the flow cell. Data collection was initiated once the Olympus UPlanFLN 10X/0.30 objective was focused on the flowing particles. The FlowCam™ was run for 45 seconds at a flow rate of 0.3 ml/min and images were acquired at 10 frames per second. Flash duration was set to 8 μSec and the particle sizes were measured using area based diameter (ABD) with a particle filter set to detect between 5 and 10000 μm. The same procedure was tested for each pair while suspended in coaggregation buffer supplemented with various concentrations of arginine or lysine.
(§2) The following three pairs of co-aggregates were co-cultured and treated with either buffer (untreated; control) 86 mM arginine or 100 mM arginine:
3) Commensal oral bacterium S. gordonii and pathogenic bacterium Fusobacterium nucleatum.
(§3) The reduction in aggregate sizes was greater in each pair of commensal/pathogenic bacteria, i.e. the co-aggregates of A. naeslundii (commensal) and P. gingivalis (pathogenic) and the co-aggregates of S. gordonii (commensal) and F. nucleatum (pathogenic) compared to the commensal/commensal co-aggregates of S. gordonii (commensal) and A. naeslundii (commensal).
(§4) In FIG. 2, the data from the treated co-aggregates was normalized against untreated co-aggregates. FIG. 2 reflects a selective action of arginine against specific co-aggregates. […]

[2] = system: co-aggregates of S. gordonii (commensal) and A. naeslundii (commensal); experiment: FlowCam coaggregation, commensal:commensal pair S. gordonii and A. naeslundii; type: cell-based, Streptococcus gordonii and Actinomyces naeslundii
Protocol: as §1, §2
1) Commensal oral bacteria Streptococcus gordonii and Actinomyces naeslundii,
as §3, §4

oral biofilms (plaque) = experiment: Destabilization of oral biofilms (plaque); type: cell-based; conditions: biofilms treated with the amino acid
[3] = system: S. gordonii and F. nucleatum co-aggregate pair; experiment: Visual Coaggregation Score, S. gordonii + F. nucleatum; type: cell-based; conditions: post-treatment
Protocol: (§5) The following six pairs of co-aggregates were co-cultured and treated with either 86 mM arginine, 400 mM arginine, 86 mM lysine or 400 mM lysine:
3) Commensal oral bacterium S. gordonii and pathogenic oral bacterium F. nucleatum;
(§6) Bacterial aggregation was scored visually using a Visual Coaggregation Score (0-4) scoring system.

[4] = system: commensal/pathogenic co-aggregate pairs; experiment: Visual coaggregation scoring, summary in words over the co-aggregate pairs of Table 1; type: cell-based
[5] = system: S. gordonii and V. atypica co-aggregate pair; experiment: Visual Coaggregation Score, S. gordonii + V. atypica; type: cell-based; conditions: post-treatment
Protocol: as §5
2) Commensal oral bacterium S. gordonii and pathogenic oral bacterium V. atypica;
as §6

[6] = system: A. oris and P. gingivalis co-aggregate pair; experiment: Visual Coaggregation Score, A. oris + P. gingivalis; type: cell-based; conditions: post-treatment
Protocol: as §5
6) Commensal oral bacterium A. oris and pathogenic oral bacterium P. gingivalis.
as §6

[7] = system: S. gordonii and A. oris co-aggregate pair; experiment: Visual Coaggregation Score, S. gordonii + A. oris; type: cell-based; conditions: for Visual Coaggregation Score (0-4): post-treatment
Protocol: as §5
1) Commensal oral bacteria S. gordonii and A. oris;
as §6

[8] = system: co-aggregates of A. naeslundii (commensal) and P. gingivalis (pathogenic); experiment: FlowCam coaggregation, commensal:pathogenic pair A. naeslundii and P. gingivalis; type: cell-based, Actinomyces naeslundii and Porphyromonas gingivalis
Protocol: as §1, §2
2) Commensal oral bacterium A. naeslundii and pathogenic bacterium Porphyromonas gingivalis,
as §3, §4

[9] = system: A. oris and F. nucleatum co-aggregate pair; experiment: Visual Coaggregation Score, A. oris + F. nucleatum; type: cell-based; conditions: post-treatment
Protocol: as §5
5) Commensal oral bacterium A. oris and pathogenic oral bacterium F. nucleatum; and
as §6

[10] = system: A. oris and V. atypica co-aggregate pair; experiment: Visual Coaggregation Score, A. oris + V. atypica; type: cell-based; conditions: post-treatment
Protocol: as §5
4) Commensal oral bacterium A. oris and pathogenic oral bacterium V. atypica;
as §6

[11] = 86 mM and 100 mM arginine, FIG. 1
[12] = Streptococcus gordonii, read-out: inhibition of co-aggregation, normalized against untreated co-aggregates
[13] = Actinomyces naeslundii, read-out: inhibition of co-aggregation, normalized against untreated co-aggregates

| SMILES | effect on oral biofilms / total biofilm biomass, in words (oral biofilms (plaque)) | Visual Coaggregation Score (0-4) ([3]; 86 mM amino acid) | Visual Coaggregation Score (0-4) ([3]; 400 mM amino acid) | Visual Coaggregation Score (0-4) ([5]; 86 mM amino acid) | Visual Coaggregation Score (0-4) ([5]; 400 mM amino acid) | Visual Coaggregation Score (0-4) ([6]; 86 mM amino acid) | Visual Coaggregation Score (0-4) ([6]; 400 mM amino acid) | Visual Coaggregation Score (0-4) ([7]; 86 mM amino acid) | Visual Coaggregation Score (0-4) ([7]; 400 mM amino acid) | Visual Coaggregation Score (0-4) ([9]; 86 mM amino acid) | Visual Coaggregation Score (0-4) ([9]; 400 mM amino acid) | Visual Coaggregation Score (0-4) ([10]; 86 mM amino acid) | Visual Coaggregation Score (0-4) ([10]; 400 mM amino acid) | further results |
| --- | --- | --- | --- | --- | --- | --- | --- | --- | --- | --- | --- | --- | --- | --- |
| N=C(N)NCCC[C@H](N)C(=O)O [arginine] | reductions in total biofilm biomass | 0-1 | 0-1 | 2-3 | 2 | 0-1 | 0 | 4 | 3-4 | 0-1 | 0 | 0-1 | 0 | bacterial aggregate sizes (area based diameter), in words [1, 11]: dose dependent reduction; inhibition at 86000 µM [1, 12]: 25%; inhibition at 100000 µM [1, 12]: 37%; bacterial aggregate sizes (area based diameter), in words [2, 11]: dose dependent reduction; inhibition at 86000 µM [2, 12]: 11%; inhibition at 100000 µM [2, 12]: 14%; inhibition of aggregation, in words ([4]; 86 mM and 100 mM arginine (so in the source), each of the five commensal/pathogenic pairs): selectively inhibited aggregation; inhibitory effect on aggregation, in words ([7]; 86 mM and 100 mM arginine (so in the source), commensal/commensal pair): none to little inhibitory effect; bacterial aggregate sizes (area based diameter), in words [8, 11]: dose dependent reduction; inhibition at 86000 µM [8, 13]: 22%; inhibition at 100000 µM [8, 13]: 64% |
| NCCCC[C@H](N)C(=O)O [lysine, reference compound] | No similar disruptive effects | 3-4 | 3 | 4 | 3 | 1-2 | 0-1 | 4 | 4 | 3-4 | 2-3 | 3 | 0-1 | anti-coadhesion functionality, in words ([4]; lysine in any of the corresponding pairs): Little to no anti-coadhesion functionality |
